Ki data for 29 compounds are collected here from patent publication US9434725B2, “5-azaindazole compounds and methods of use” (priority 2012, dated 2016).

In one test the target is PIM2 (Homo sapiens (Human), UniProt Q9P1W9). Nature of the test: Pim kinase binding activity, Caliper LC3000 microfluidic peptide phosphorylation assay, PIM2. Particulars: 10 μM ATP, 90 min, room temperature; read-out: PIM2 LC3K (KI). The format is biochemical. As for the experimental part:
(§1) A fluorescent-labeled Pim-specific peptide substrate, was custom synthesized by American Peptide Company (Sunnyvale, Calif.). Reaction Buffer contained 10 mM HEPES, pH 7.2, 10 mM MgCl2, 0.01% Tween 20, 2 mM DTT. Termination Buffer contained 190 mM HEPES, pH 7.2, 0.015% Brij-35, 0.2% Coating Reagent 3 (Caliper Life Sciences, Hopkinton, Mass.), 20 mM EDTA. Separation Buffer contained 100 mM HEPES, pH 7.2, 0.015% Brij-35, 0.1% Coating Reagent 3, 1:200 Coating Reagent 8 (Caliper Life Sciences, Hopkinton, Mass.), 10 mM EDTA and 5% DMSO.
(§2) PIM reactions were carried out in a final volume of 10 μL per well in a 384-well plate. […] After 90 minutes of incubation at room temperature, the phosphorylation reaction was stopped by the addition of 10 μL Termination Buffer. The product and substrate in each independent reaction were separated on a 12-sipper microfluidic chip (Caliper Life Sciences, Hopkinton, Mass.) run on a Caliper LC3000® (Caliper Life Sciences, Hopkinton, Mass.). The separation of product and substrate was optimized by choosing voltages and pressure using Caliper's Optimizer software (Hopkinton, Mass.). […] Substrate conversion was calculated from the electropherogram using HTS Well Analyzer software (Caliper Life Sciences, Hopkinton, Mass.). Ki values for the test compound were calculated.

Another test has as its target PIM3 (Homo sapiens (Human), UniProt Q86V86). The test is described as follows: Pim kinase binding activity, Caliper LC3000 microfluidic peptide phosphorylation assay, PIM3. To be noted: 10 μM ATP, 90 min, room temperature; read-out: PIM3 LC3K (KI). The test is classed as biochemical. As for the experimental part: as §1, §2

Sequence of PIM2 (Q9P1W9 whole entry): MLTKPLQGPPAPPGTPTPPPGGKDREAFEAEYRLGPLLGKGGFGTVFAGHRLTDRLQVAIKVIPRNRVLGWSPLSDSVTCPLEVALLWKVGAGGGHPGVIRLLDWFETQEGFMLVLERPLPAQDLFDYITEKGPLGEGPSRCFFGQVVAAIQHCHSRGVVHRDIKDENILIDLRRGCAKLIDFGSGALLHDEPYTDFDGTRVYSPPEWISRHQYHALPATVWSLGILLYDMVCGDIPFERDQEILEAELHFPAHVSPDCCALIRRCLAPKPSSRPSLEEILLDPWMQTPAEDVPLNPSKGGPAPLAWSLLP

Regarding `Cc1cncc(-c2cc3c(cn2)cnn3-c2cccc(C3CCNCC3)n2)n1` [Compound 166, 6-(6-methylpyrazin-2-yl)-1-[6-(4-piperidyl)-2-pyridyl]pyrazolo[4,3-c]pyridine], the values for the inhibition constant Ki on PIM2 and at PIM3 were 4.62 nM and 0.447 nM, respectively.

Consider `Cc1cncc(-c2cc3c(cn2)cnn3-c2cccc(N3CCCCC(N)C3)n2)n1` (centres unmarked) [Compound 187, 1-[6-[6-(6-methylpyrazin-2-yl)pyrazolo[4,3-c]pyridin-1-yl]-2-pyridyl]azepan-3-amine], for which the inhibition constant (Ki) on PIM2 was 1.06 nM.

On to `Cc1cncc(-c2cc3c(cn2)cnn3-c2cccc(C(=O)N3CCC[C@H](N)C3)n2)n1` [Compound 302, (S)-(3-aminopiperidin-1-yl)(6-(6-(6-methylpyrazin-2-yl)-1H-pyrazolo[4,3-c]pyridin-1-yl)pyridin-2-yl)methanone], for which the inhibition constant (Ki) is 183 nM on PIM2 and 20.1 nM on PIM3.

On to `Cc1cncc(-c2cc3c(cn2)cnn3-c2ccc(C(F)F)c(N3CCC[C@H](N)C3)n2)n1` [Compound 227, (S)-1-(3-(difluoromethyl)-6-(6-(6-methylpyrazin-2-yl)-1H-pyrazolo[4,3-c]pyridin-1-yl)pyridin-2-yl)piperidin-3-amine], for which, at PIM3, the inhibitory constant (Ki) turned out to be 0.019 nM.

In the case of `Cc1cncc(-c2cc3c(cn2)cnn3-c2cccc(N3CCNC[C@@H]3C)n2)n1` [Compound 196, 1-[6-[(2S)-2-methylpiperazin-1-yl]-2-pyridyl]-6-(6-methylpyrazin-2-yl)pyrazolo[4,3-c]pyridine], the inhibition constant Ki on PIM2 came out at 0.864 nM.

As for `CC(C)c1cncc(-c2cc3c(cn2)cnn3-c2cccc(N3CCCNCC3)n2)c1` [Compound 103, 1-(6-(1,4-diazepan-1-yl)pyridin-2-yl)-6-(5-isopropylpyridin-3-yl)-1H-pyrazolo[4,3-c]pyridine], the inhibition constant (Ki) on PIM2 is 2.76 nM; at PIM3 it was 0.065 nM.

Turning to `Cc1cncc(-c2cc3c(cn2)cnn3-c2cccc(N3CCNC(C)CC3)n2)n1` (centres unmarked) [Compound 184, 1-[6-(5-methyl-1 4-diazepan-1-yl)-2-pyridyl]-6-(6-methylpyrazin-2-yl)pyrazolo[4,3-c]pyridine], the Ki is 2.42 nM on PIM2 and 0.076 nM on PIM3.

Consider `Cc1cncc(-c2cc3c(cn2)cnn3-c2cccc(N3CCNC[C@H]3C)n2)n1` [Compound 191, 1-[6-[(2R)-2-methylpiperazin-1-yl]-2-pyridyl]-6-(6-methylpyrazin-2-yl)pyrazolo[4,3-c]pyridine], for which the inhibition constant (Ki) at PIM2 turned out to be 0.659 nM; on PIM3 it was 0.033 nM.

Regarding `FC(F)(F)Cn1cc(-c2cc3c(cn2)cnn3-c2ccnc(N3CCCNCC3)n2)cn1` [Compound 179, 1-(2-(1,4-Diazepan-1-yl)pyrimidin-4-yl)-6-(1-(2,2,2-trifluoroethyl)-1H-pyrazol-4-yl)-1H-pyrazolo-[4,3-c]pyridine], the inhibition constant (Ki) on PIM3 was found to be 1.76 nM.

Take `Cc1cncc(-c2cc3c(cn2)cnn3-c2ccc(=O)n([C@H]3CCCNC3)n2)n1` [Compound 289, (S)-6-(6-(6-methylpyrazin-2-yl)-1H-pyrazolo[4,3-c]pyridin-1-yl)-2-(piperidin-3-yl)pyridazin-3(2H)-one]: the Ki at PIM2 stood at 1000 nM.

For the compound `CNc1cccc(-n2ncc3cnc(-c4cncc(C)n4)cc32)n1` [Compound 297, N-methyl-6-(6-(6-methylpyrazin-2-yl)-1H-pyrazolo[4,3-c]pyridin-1-yl)pyridin-2-amine], the results for the inhibition constant Ki on PIM2 and at PIM3 were 3.43 nM and 0.235 nM, respectively.

With `Cc1cncc(-c2cc3c(cn2)cnn3-c2cccc(N3CCCC(N)C3C)n2)n1` (single isomer, unassigned) [Compound 204, 2-methyl-1-[6-[6-(6-methylpyrazin-2-yl)pyrazolo[4,3-c]pyridin-1-yl]-2-pyridyl]piperidin-3-amine], the Ki on PIM2 turned out to be 0.477 nM; at PIM3, 0.025 nM.

Consider `CC(C)c1cncc(-c2cc3c(cn2)cnn3-c2cccc(N3CCNCC3)n2)c1` [Compound 105, 6-(5-isopropylpyridin-3-yl)-1-(6-(piperazin-1-yl)pyridin-2-yl)-1H-pyrazolo[4,3-c]pyridine], for which the Ki at PIM2 came to 7.14 nM; on PIM3, 0.183 nM.

Take `Cc1nc(-c2cc3c(cn2)cnn3-c2cccc(N3CCCNCC3)n2)cnc1N` [Compound 208, 5-(1-(6-(1,4-diazepan-1-yl)pyridin-2-yl)-1H-pyrazolo[4,3-c]pyridin-6-yl)-3-methylpyrazin-2-amine]: the values for the Ki on PIM2 and at PIM3 were 0.748 nM and 0.014 nM, respectively.

With `Cn1cc(-c2cc3c(cn2)cnn3-c2cccc(N3CCCNCC3)n2)cn1` [Compound 224, 1-(6-(1,4-Diazepan-1-yl)pyridin-2-yl)-6-(1-methyl-1H-pyrazol-4-yl)-1H-pyrazolo[4,3-c]pyridine], the Ki at PIM2 came out at 5.01 nM; on PIM3, 0.097 nM.

`c1ccc(-n2ncc3cnc(-c4cncc(NC5CNC5)n4)cc32)nc1` [Compound 308, N-(azetidin-3-yl)-6-(1-(pyridin-2-yl)-1H-pyrazolo[4,3-c]pyridin-6-yl)pyrazin-2-amine]: the inhibition constant Ki on PIM2 stood at 4.31 nM; on PIM3, 0.4 nM.

Consider `Cc1cncc(-c2cc3c(cn2)cnn3-c2cccc(C(=O)N3CCC[C@@H](N)C3)n2)n1` [Compound 303, (R)-(3-aminopiperidin-1-yl)(6-(6-(6-methylpyrazin-2-yl)-1H-pyrazolo[4,3-c]pyridin-1-yl)pyridin-2-yl)methanone], for which the inhibition constant Ki turned out to be 193 nM on PIM2 and 15.6 nM at PIM3.

With `CC(C)c1cncc(-c2cc3c(cn2)cnn3-c2cccc(N3CCC[C@H](N)C3)n2)c1` [Compound 108, (3S)-1-[6-[6-(5-isopropyl-3-pyridyl)pyrazolo[4,3-c]pyridin-1-yl]-2-pyridyl]piperidin-3-amine], the figures for the inhibitory constant (Ki) on PIM2 and on PIM3 were 1.93 nM and 0.049 nM, respectively.

As for `CCn1cc(-c2cc3c(cn2)cnn3-c2cccc(N3CCNCC3)n2)cn1` [Compound 101, 6-(1-ethylpyrazol-4-yl)-1-(6-piperazin-1-yl-2-pyridyl)pyrazolo[4,3-c]pyridine], the Ki on PIM2 stood at 14.6 nM; at PIM3, 0.676 nM.

Turning to `Cc1cncc(-c2cc3c(cn2)cnn3-c2cccc(N3CCC[C@H](N)C3=O)n2)n1` [Compound 225, (3S)-3-amino-1-[6-[6-(6-methylpyrazin-2-yl)pyrazolo[4,3-c]pyridin-1-yl]-2-pyridyl]piperidin-2-one], the figures for the Ki at PIM2 and at PIM3 were 4.29 nM and 0.267 nM, respectively.

Take `Cc1cncc(-c2cc3c(cn2)cnn3-c2cccc(N3CC[C@H](N)C3)n2)n1` [Compound 167, (3S)-1-[6-[6-(6-methylpyrazin-2-yl)pyrazolo[4,3-c]pyridin-1-yl]-2-pyridyl]pyrrolidin-3-amine]: the Ki was found to be 2.27 nM at PIM2 and 0.34 nM on PIM3.

`Cc1cncc(-c2cc3c(cn2)cnn3-c2cccc(N3CCCC(N)C3C)n2)n1` (single isomer, unassigned) [Compound 203, 2-methyl-1-[6-[6-(6-methylpyrazin-2-yl)pyrazolo[4,3-c]pyridin-1-yl]-2-pyridyl]piperidin-3-amine]: the inhibition constant (Ki) is 4.83 nM at PIM2 and 0.331 nM at PIM3.

Regarding `c1cc(N2CCCNCC2)nc(-n2ncc3cnc(-c4cn[nH]c4)cc32)c1` [Compound 180, 1-(6-(1,4-Diazepan-1-yl)pyridin-2-yl)-6-(1H-pyrazol-4-yl)-1H-pyrazolo[4,3-c]pyridine], the Ki on PIM2 was determined as 1.6 nM; on PIM3, 0.086 nM.

On to `Cc1cncc(-c2cc3c(cn2)cnn3-c2ccc(Cl)c(N3CCC[C@H](N)C3)n2)n1` [Compound 176, (S)-1-(3-chloro-6-(6-(6-methylpyrazin-2-yl)-1H-pyrazolo[4,3-c]pyridin-1-yl)pyridin-2-yl)piperidin-3-amine], for which the inhibition constant (Ki) at PIM2 was 0.317 nM; at PIM3, 0.047 nM.

With `CCn1cc(-c2cc3c(cn2)cnn3-c2cccc(N3CCCNCC3)n2)cn1` [Compound 125, 1-(6-(1,4-diazepan-1-yl)pyridin-2-yl)-6-(1-ethyl-1H-pyrazol-4-yl)-1H-pyrazolo[4,3-c]pyridine], the Ki at PIM2 was 4.27 nM.

As for `Cc1cc(-c2cc3c(cn2)cnn3-c2cccc(N3CCCNCC3)n2)sn1` [Compound 120, 5-[1-[6-(1 4-diazepan-1-yl)-2-pyridyl]pyrazolo[4,3-c]pyridin-6-yl]-3-methyl-isothiazole], the Ki on PIM2 turned out to be 4.66 nM; on PIM3 it was 0.168 nM.

Consider `CCc1cncc(-c2cc3c(cn2)cnn3-c2cccc(N3CCC[C@H](N)C3)n2)n1` [Compound 156, (3S)-1-[6-[6-(6-ethylpyrazin-2-yl)pyrazolo[4,3-c]pyridin-1-yl]-2-pyridyl]piperidin-3-amine], for which the inhibition constant Ki on PIM2 is 0.37 nM; at PIM3 it was 0.014 nM.

With `Cc1cncc(-c2cc3c(cn2)cnn3-c2cccc(N(C)C)n2)n1` [Compound 296, N,N-dimethyl-6-(6-(6-methylpyrazin-2-yl)-1H-pyrazolo[4,3-c]pyridin-1-yl)pyridin-2-amine], the Ki on PIM3 worked out at 0.562 nM.

For the compound `CCc1cncc(-c2cc3c(cn2)cnn3-c2cccc(N3CCNCC(O)C3)n2)c1` (centres unmarked) [Compound 106, 1-(6-(6-(5-ethylpyridin-3-yl)-1H-pyrazolo[4,3-c]pyridin-1-yl)pyridin-2-yl)-1,4-diazepan-6-ol], at PIM2, the Ki amounted to 7.26 nM.

As a reminder, the Ki is the dissociation constant of the complex between target and ligand, obtained from inhibition or displacement.
